Measurements taken from US20230210802A1, “COMPOSITION FOR RELIEVING HANGOVER AND IMPROVING LIVER FUNCTION” (Zefit Inc., priority 2022, published 2023).

Each molecule was assayed on zebrafish model showing an anesthetic effect by acute alcohol treatment (assay: Movement distance of zebrafish model with acute alcohol treatment (total distance, video tracking 20 minutes)). Conditions: zebrafish larvae 7 dpf, ETOH 2%, omega-3 1.4 mg/L, B2 0.2 mg/L, B3 0.5 mg/L, values converted from FIG. 4.
Format: in vivo
Description: First, each of omega-3 fatty acid (1.4 mg/L), riboflavin (vitamin B2) (0.2 mg/L), and nicotinamide (vitamin B3) (0.5 mg/L) was dissolved in E3 media to prepare a pre-treatment solution. A mixture of omega-3 fatty acid (1.4 mg/L), riboflavin (vitamin B2) (0.2 mg/L), and nicotinamide (vitamin B3) (0.5 mg/L) was dissolved in E3 media to prepare a pre-treatment solution. Each of omega-3 fatty acid (1.4 mg/L), riboflavin (vitamin B2) (0.2 mg/L), and nicotinamide (vitamin B3) (0.5 mg/L) was dissolved in ETOH 2% (in E3 media) to prepare a post-treatment solution. A mixture of omega-3 fatty acid (1.4 mg/L), riboflavin (vitamin B2) (0.2 mg/L), and nicotinamide (vitamin B3) (0.5 mg/L) was dissolved in ETOH 2% (in E3 media) to prepare a post-treatment solution. Zebrafish larvae at 7 days post-fertilization (dpf) were exposed in water to 200 μl/well of the pre-treatment solution for each group (n=20/group) in a 96-well plate for 1 hour. 1 zebrafish larva was in each well. After 1 hour of pre-treatment, the pre-treatment solution was replaced with 200 μl/well of the post-treatment solution for each group, followed by exposure in water. Subsequently, the behaviors of the zebrafish larvae were recorded for 20 minutes. After recording, the cumulative distances for each section (0-5 min, 5-10 min, 10-15 min, and 15-20 min) of the normal control and the experimental groups were analyzed, and the results thereof are shown in FIGS. 1 and 2. […]
Particularly, the behaviors of zebrafish larvae were recorded for 20 minutes, and after recording, the total distance for an experiment time of 20 minutes of each of the normal control and the experimental groups was analyzed, and the results thereof are shown in FIG. 4. […]

Molecule	Average value of total movement distance [mm]
NC(=O)c1cccnc1 [ETOH + B3, nicotinamide]	77.39
omega-3 fatty acid [ETOH + Omega-3 fatty acid]	399.3
riboflavin [ETOH + B2]	223.97
